Results taken from PubChem BioAssay AID248 (DTP/NCI, 2004).
Where “and” joins values, the source holds several entries; their conditions need not be identical. Equal entries are not always repeated. Inconclusive results and toxic doses are left out. No stated cut-off is given here; in the data, active means T/C of 150% or more; inactive means T/C below 125%.

System: L1210 leukemia ip in BDF1 mice, survival T/C
Assay: NCI In Vivo Anticancer Drug Screen. Data for tumor model L1210 Leukemia (intraperitoneal) in B6D2F1 (BDF1) mice
Details: endpoint: mean survival time, higher = longer survival
Outline: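 Transplanted-tumor mice were given test agent; controls received vehicle only. Survival readings from the two groups were divided (treated over control).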

[1] = dose: 100.0 mg/kg/injection, schedule: Q01DX001 (ip), vehicle: saline
[2] = dose: 200.0 mg/kg/injection, schedule: Q01DX001 (ip), vehicle: saline
[3] = dose: 400.0 mg/kg/injection, schedule: Q01DX001 (ip), vehicle: saline
[4] = dose: 100.0 mg/kg/injection, schedule: Q04DX003 (ip), vehicle: Klucel (hydroxypropylcellulose) (HPC)
[5] = dose: 100.0 mg/kg/injection, schedule: Q04DX003 (ip), vehicle: saline with Tween-80
[6] = dose: 200.0 mg/kg/injection, schedule: Q04DX003 (ip), vehicle: Klucel (hydroxypropylcellulose) (HPC)
[7] = dose: 200.0 mg/kg/injection, schedule: Q04DX003 (ip), vehicle: saline with Tween-80
[8] = dose: 400.0 mg/kg/injection, schedule: Q04DX003 (ip), vehicle: Klucel (hydroxypropylcellulose) (HPC)
[9] = dose: 400.0 mg/kg/injection, schedule: Q04DX003 (ip), vehicle: saline with Tween-80
[10] = dose: 100.0 mg/kg/injection, schedule: Q04DX003 (ip), vehicle: saline
[11] = dose: 100.0 mg/kg/injection, schedule: Q04DX002 (ip), vehicle: saline with Tween-80
[12] = dose: 200.0 mg/kg/injection, schedule: Q04DX002 (ip), vehicle: saline with Tween-80
[13] = dose: 400.0 mg/kg/injection, schedule: Q04DX002 (ip), vehicle: saline with Tween-80
[14] = dose: 100.0 mg/kg/injection, schedule: Q01DX009 (ip), vehicle: Klucel (hydroxypropylcellulose) (HPC)
[15] = dose: 200.0 mg/kg/injection, schedule: Q01DX009 (ip), vehicle: Klucel (hydroxypropylcellulose) (HPC)
[16] = dose: 400.0 mg/kg/injection, schedule: Q01DX009 (ip), vehicle: Klucel (hydroxypropylcellulose) (HPC)

Measured: T/C

O=C(CCCCCCCCC(=O)NCC1(c2ccccc2)CCNCC1)NCC1(c2ccccc2)CCNCC1
inactive: dose: 1.25 mg/kg/injection, schedule: Q01DX Z (ip), vehicle: saline 89 % of control | dose: 2.5 mg/kg/injection, schedule: Q01DX Z (ip), vehicle: saline 88 % of control | dose: 10.0 mg/kg/injection, schedule: Q01DX Z (ip), vehicle: saline 97 % of control and 88 % of control | dose: 30.0 mg/kg/injection, schedule: Q01DX Z (ip), vehicle: saline 87 % of control

COc1c(OC)c(OC)c2c(=O)cc(-c3ccc4c(c3)OCO4)oc2c1OC
inactive: dose: 50.0 mg/kg/injection, schedule: Q01DX001 (ip), vehicle: other 103 % of control | dose: 100.0 mg/kg/injection, schedule: Q01DX001 (ip), vehicle: other 100 % of control | dose: 200.0 mg/kg/injection, schedule: Q01DX001 (ip), vehicle: other 100 % of control | dose: 400.0 mg/kg/injection, schedule: Q01DX001 (ip), vehicle: other 91 % of control

O=NN1CCCCCCC1C(=O)O (configuration not stated)
inactive: [1] 102 % of control | [2] 98 % of control | [3] 102 % of control

O=S(=O)(CCCl)c1ccccc1
inactive: [4] 103 % of control | [5] 92 % of control | [6] 97 % of control | [7] 92 % of control | [8] 94 % of control | [9] 97 % of control

CSc1n[n+](-c2ccccc2)cs1
inactive: [1] 103 % of control | [2] 103 % of control | [3] 100 % of control

NC(N)=NC(N)=NCCCCc1ccccc1
inactive: dose: 25.0 mg/kg/injection, schedule: Q04DX003 (ip), vehicle: Klucel (hydroxypropylcellulose) (HPC) 95 % of control | dose: 50.0 mg/kg/injection, schedule: Q04DX003 (ip), vehicle: Klucel (hydroxypropylcellulose) (HPC) 109 % of control | [4] 101 % of control

CC(C)(C)C1=CC(=O)C(C#N)=C(C#N)C1=O
inactive: [10] 96 % of control

OCC(O)CSc1c(Cl)c(Cl)c(Cl)c(Cl)c1Cl (configuration not stated)
inactive: dose: 100.0 mg/kg/injection, schedule: Q01DX001 (ip), vehicle: saline with Tween-80 98 % of control and 88 % of control | [11] 95 % of control and 101 % of control | [5] 92 % of control | dose: 200.0 mg/kg/injection, schedule: Q01DX001 (ip), vehicle: saline with Tween-80 93 % of control and 95 % of control | [12] 95 % of control and 96 % of control | [7] 99 % of control | dose: 400.0 mg/kg/injection, schedule: Q01DX001 (ip), vehicle: saline with Tween-80 95 % of control and 86 % of control | [13] 97 % of control and 108 % of control | [9] 94 % of control

CCCCCCCCCCCCCCCCCCOC(=O)Cc1ccc(N(CCCl)CCCl)cc1
inactive: [14] 105 % of control | [4] 100 % of control | [15] 110 % of control | [6] 109 % of control | [16] 115 % of control | [8] 105 % of control

CCCCCCCCCCCCNC(=O)OCCN(CCOC(=O)NCCCCCCCCCCCC)C(=O)COc1ccc(Cl)cc1
inactive: dose: 100.0 mg/kg/injection, schedule: Q01DX009 (ip), vehicle: other 92 % of control | dose: 200.0 mg/kg/injection, schedule: Q01DX009 (ip), vehicle: other 92 % of control | dose: 400.0 mg/kg/injection, schedule: Q01DX009 (ip), vehicle: other 96 % of control

O=S(=O)(CC(Br)c1ccccc1)c1ccccc1 (configuration not stated)
inactive: dose: 100.0 mg/kg/injection, schedule: Q01DX009 (ip), vehicle: saline 92 % of control | [10] 101 % of control | dose: 200.0 mg/kg/injection, schedule: Q01DX009 (ip), vehicle: saline 95 % of control | dose: 200.0 mg/kg/injection, schedule: Q04DX003 (ip), vehicle: saline 104 % of control | dose: 400.0 mg/kg/injection, schedule: Q01DX009 (ip), vehicle: saline 94 % of control | dose: 400.0 mg/kg/injection, schedule: Q04DX003 (ip), vehicle: saline 97 % of control

CCOP(=O)(OCC)C(c1ccccc1)C(c1ccccc1)c1ccccc1 (configuration not stated)
inactive: dose: 100.0 mg/kg/injection, schedule: Q04DX003 (ip), vehicle: other 97 % of control | dose: 200.0 mg/kg/injection, schedule: Q04DX003 (ip), vehicle: other 93 % of control | dose: 400.0 mg/kg/injection, schedule: Q04DX003 (ip), vehicle: other 101 % of control

COc1c(Br)c(-c2ccccc2)nc2ccccc12
inactive: [1] 100 % of control | [2] 88 % of control | [3] 92 % of control

Nc1nc(N)c(CCCOc2ccc(NC(=O)c3cc(S(=O)(=O)F)ccc3Cl)cc2)c(N)n1
inactive: dose: 100.0 mg/kg/injection, schedule: Q01DX001 (ip), vehicle: Klucel (hydroxypropylcellulose) (HPC) 99 % of control | dose: 200.0 mg/kg/injection, schedule: Q01DX001 (ip), vehicle: Klucel (hydroxypropylcellulose) (HPC) 99 % of control | dose: 400.0 mg/kg/injection, schedule: Q01DX001 (ip), vehicle: Klucel (hydroxypropylcellulose) (HPC) 105 % of control

CC(=O)N(NC(=O)c1ccccn1)C(C)=O
inactive: dose: 100.0 mg/kg/injection, schedule: Q01DX001 (ip), vehicle: water 97 % of control | dose: 200.0 mg/kg/injection, schedule: Q01DX001 (ip), vehicle: water 106 % of control

O=[N+]([O-])c1ccc(O)c(/C=N/N2CCCCC2)c1
inactive: [11] 94 % of control | [12] 97 % of control | [13] 108 % of control

O=C(c1ccc(O)cc1)c1c[nH]c2c(O)ccc(O)c12
inactive: dose: 25.0 mg/kg/injection, schedule: Q04DX002 (ip), vehicle: saline + alcohol 98 % of control | dose: 50.0 mg/kg/injection, schedule: Q04DX002 (ip), vehicle: saline + alcohol 91 % of control

O=C(C(Cl)Cl)C(Cl)Cl
inactive: dose: 10.0 mg/kg/injection, schedule: Q01DX001 (ip), vehicle: carboxymethylcellulose (CMC) 106 % of control

c1ccc(C2OCCOC2c2ccccc2)cc1 (configuration not stated)
inactive: dose: 100.0 mg/kg/injection, schedule: Q01DX001 (ip), vehicle: carboxymethylcellulose (CMC) 101 % of control | dose: 200.0 mg/kg/injection, schedule: Q01DX001 (ip), vehicle: carboxymethylcellulose (CMC) 103 % of control | dose: 400.0 mg/kg/injection, schedule: Q01DX001 (ip), vehicle: carboxymethylcellulose (CMC) 101 % of control

Cc1ccc(-n2c(O)c(N=Nc3ccc(Cl)cc3)c(=O)n(-c3ccc(C)cc3)c2=S)cc1
inactive: dose: 37.5 mg/kg/injection, schedule: Q01DX001 (ip), vehicle: Klucel (hydroxypropylcellulose) (HPC) 97 % of control | dose: 75.0 mg/kg/injection, schedule: Q01DX001 (ip), vehicle: Klucel (hydroxypropylcellulose) (HPC) 107 % of control | dose: 150.0 mg/kg/injection, schedule: Q01DX001 (ip), vehicle: Klucel (hydroxypropylcellulose) (HPC) 96 % of control

[O-][n+]1ccccc1Br
inactive: dose: 50.0 mg/kg/injection, schedule: Q01DX009 (ip), vehicle: water 104 % of control | dose: 100.0 mg/kg/injection, schedule: Q01DX009 (ip), vehicle: water 98 % of control | dose: 100.0 mg/kg/injection, schedule: Q04DX003 (ip), vehicle: water 95 % of control | dose: 150.0 mg/kg/injection, schedule: Q01DX009 (ip), vehicle: water 95 % of control | dose: 200.0 mg/kg/injection, schedule: Q04DX003 (ip), vehicle: water 115 % of control

COc1cc(O)c(OC)cc1O
inactive: [14] 100 % of control | [4] 105 % of control | [15] 103 % of control | [6] 103 % of control | [16] 97 % of control | [8] 102 % of control
